In ChEMBL document CHEMBL5518159, “Thiazole-based analogues as potential antibacterial agents against methicillin-resistant Staphylococcus aureus (MRSA) and their SAR elucidation” (Eur J Med Chem, 2023):
Converted amounts (≈) assume the structure as drawn.

Key:
Assay type in all cases: functional
Staphylococcus aureus [1] = experiment: Antibacterial activity against methicillin-resistant Staphylococcus aureus assessed as reduction in microbial growth by CLSI based broth microdilution method
Escherichia coli [2] = experiment: Antibacterial activity against Escherichia coli ATCC 35210 assessed as reduction in microbial growth
Staphylococcus aureus [3] = experiment: Antibacterial activity against methicillin-resistant Staphylococcus aureus ATCC 43300 assessed as reduction in bacterial growth by CLSI protocol based broth microdilution method
Staphylococcus aureus [4] = experiment: Antibacterial activity against methicillin-resistant Staphylococcus aureus ATCC 43300 assessed as bacterial growth inhibition incubated for 24 hrs by broth dilution method
Staphylococcus aureus [5] = experiment: Antibacterial activity against […] Staphylococcus aureus ATCC 6538 assessed as bacterial growth inhibition incubated for 24 hrs by broth micro-dilution method
Staphylococcus aureus [6] = experiment: Antibacterial activity against Methicillin-resistant Staphylococcus aureus ATCC 43300 assessed as reduction in bacterial growth measured for 24 hrs by CLSI based broth microdilution method
Staphylococcus aureus [7] = experiment: Antibacterial activity against methicillin-resistant Staphylococcus aureus assessed as inhibition of bacterial growth measured after 24 hrs by broth micro-dilution method
Staphylococcus aureus [8] = experiment: Antibacterial activity against Methicillin-sensitive Staphylococcus aureus ATCC 43300 assessed as reduction in microbial growth by CLSI based broth microdilution method
Staphylococcus aureus [9] = experiment: Antibacterial activity against […] Staphylococcus aureus ATCC 29213 assessed as reduction in bacterial growth incubated for 16 to 20 hrs by CLSI based two-fold serial dilution method; conditions: time 16-20 hrs
Staphylococcus aureus [10] = experiment: Antibacterial activity against […] Staphylococcus aureus ATCC 6538 assessed as reduction in bacterial growth incubated for 24 hrs by broth micro-dilution method
Staphylococcus aureus [11] = experiment: Antibacterial activity against Methicillin-resistant Staphylococcus aureus assessed as reduction of microbial growth by Muller Hinton broth based dilution assay
Staphylococcus aureus [12] = experiment: Antibacterial activity against clinical isolate Methicillin resistant Staphylococcus aureus 2658 RCMB assessed as reduction in microbial growth incubated for 16 to 24 hrs by CLSI-based Muller Hinton broth based microdilution method; conditions: time 16-24 hrs
Escherichia coli [13] = experiment: Antibacterial activity against Escherichia coli ATCC 25922 assessed as reduction in bacterial growth incubated for 18 to 24 hrs by broth microdilution method; conditions: time 18-24 hrs
Staphylococcus aureus [14] = experiment: Antibacterial activity against Methicillin-resistant Staphylococcus aureus […] assessed as reduction in microbial growth incubated for 18 to 24 hrs by broth micro-dilution method; conditions: time 18-24 hrs
Escherichia coli [15] = experiment: Antibiofilm activity against Escherichia coli ATCC 25922 assessed as reduction in biofilm formation at 50 uM incubated for 24 hrs by crystal violet staining based analysis relative to control; set-up: scale not given: the % may be the effect or the level left
Staphylococcus aureus [16] = experiment: Antibacterial activity against Methicillin-sensitive Staphylococcus aureus ATCC 6538 assessed as reduction in microbial growth
Escherichia coli [17] = experiment: Antibacterial activity against Escherichia coli ATCC 35210 assessed as reduction in bacterial growth by broth microdilution method
Pseudomonas aeruginosa = experiment: Antibacterial activity against Pseudomonas aeruginosa assessed as reduction in bacterial growth by broth microdilution method
Staphylococcus aureus [18] = experiment: Antimicrobial activity against Methicillin-resistant Staphylococcus aureus ATCC 43300 assessed as bacterial growth inhibition incubated for 18 hrs by broth micro-dilution method
Staphylococcus aureus [19] = experiment: Antibacterial activity against methicillin-resistant Staphylococcus aureus ATCC 33592 assessed as reduction in microbial growth incubated for 16 to 20 hrs by CLSI based two-fold serial dilution method; conditions: time 16-20 hrs
Staphylococcus aureus [20] = experiment: Antibacterial activity against Methicillin-resistant Staphylococcus aureus ATCC 43300 clinical isolate assessed as reduction in microbial growth incubated for 16 to 20 hrs by CLSI based two-fold serial dilution method; conditions: time 16-20 hrs
Staphylococcus aureus [21] = experiment: Antibacterial activity against Methicillin-resistant Staphylococcus aureus AUMC 261 assessed as bacterial growth inhibition incubated for 24 hrs by broth microdilution analysis

## O=C(/C(=C/c1ccccc1Cl)n1cnc2cc(Cl)ccc2c1=O)c1nccs1
Staphylococcus aureus [1]
  MIC: 2 µg/mL

## CCc1nc(N2CCN(CC(=O)Nc3nccs3)CC2)c(C#N)c2c1COC(C)(C)C2
Escherichia coli [2]
  MIC: 230 µg/mL

## O=C1CSC(c2c(F)cccc2Cl)N1c1nc2ccc(OC(F)(F)F)cc2s1 (stereo unspecified)
Staphylococcus aureus [3]
  MIC: 250 µg/mL (≈ 557 µM)
Staphylococcus aureus [4]
  MBC: 120 µg/mL (≈ 267 µM)

## O=C1CSC(c2ccc([N+](=O)[O-])cc2)N1c1nc2c(Cl)cccc2s1 (stereo unspecified)
Staphylococcus aureus [5]
  MIC: 90 µg/mL (≈ 230 µM)

## O=C1CSC(c2cccc(Cl)c2Cl)N1c1nc2ccc(OC(F)(F)F)cc2s1 (stereo unspecified)
Staphylococcus aureus [3]
  MIC: 250 µg/mL (≈ 537 µM)
Staphylococcus aureus [4]
  MBC: 120 µg/mL (≈ 258 µM)

## CN[C@H](CC(C)C)C(=O)N[C@H]1C(=O)N[C@@H](CC(N)=O)C(=O)N[C@H]2C(=O)N[C@H]3C(=O)N[C@H](C(=O)N[C@H](C(=O)O)c4cc(O)cc(O)c4-c4cc3ccc4O)[C@H](O)c3ccc(c(Cl)c3)Oc3cc2cc(c3O[C@@H]2O[C@H](CO)[C@@H](O)[C@H](O)[C@H]2O[C@H]2C[C@](C)(N)[C@H](O)[C@H](C)O2)Oc2ccc(cc2Cl)[C@H]1O [VANCOMYCIN]
Staphylococcus aureus [6]
  MIC50: 4 µg/mL (≈ 2.76 µM)
Staphylococcus aureus [7]
  MIC: 1.95 µg/mL (≈ 1.35 µM)
Staphylococcus aureus [8]
  MIC90: 16 µg/mL

## COc1ccc(/C=c2/s/c(=C/c3ncc(C)s3)[nH]c2=O)cc1
Staphylococcus aureus [7]
  MIC: 40 µg/mL (≈ 121 µM)

## O=C1CSC(c2ccc(Cl)cc2Cl)N1c1nc2ccc(OC(F)(F)F)cc2s1 (stereo unspecified)
Staphylococcus aureus [3]
  MIC: 250 µg/mL (≈ 537 µM)
Staphylococcus aureus [4]
  MBC: 120 µg/mL (≈ 258 µM)

## O=C1CSC(c2ccc(F)cc2)N1c1nc2ccc(OC(F)(F)F)cc2s1 (stereo unspecified)
Staphylococcus aureus [3]
  MIC: 250 µg/mL (≈ 603 µM)
Staphylococcus aureus [4]
  MBC: 120 µg/mL (≈ 290 µM)

## N#Cc1c(N2CCN(CC(=O)Nc3nccs3)CC2)nc(-c2ccco2)c2c1CCC2
Escherichia coli [2]
  MIC: 230 µg/mL

## CCCCCNc1ccc(S(=O)(=O)CC(=O)c2nccs2)cc1
Staphylococcus aureus [9]
  MIC: 1 µg/mL (≈ 2.84 µM)

## O=C1CSC(c2ccc([N+](=O)[O-])cc2)N1c1nc2ccc(Cl)cc2s1 (stereo unspecified)
Staphylococcus aureus [10]
  MIC: 100 µg/mL (≈ 255 µM)

## O=C(/C(=C/c1ccc(-c2ccc([N+](=O)[O-])cc2)cc1)Oc1ccc2c(CN(CCO)CCO)cc(=O)oc2c1)c1nccs1
Staphylococcus aureus [11]
  MIC: 4 µg/mL

## Cc1nc(-c2ccc3ccccc3c2)sc1-c1nnc(NC(=N)N)o1
Staphylococcus aureus [12]
  MIC: 1.9 µg/mL

## CCOC1=NC(=N/N=C2\C(=O)Nc3ccc(Br)cc32)/S/C1=N/Nc1ccc([N+](=O)[O-])cc1
Escherichia coli [13]
  MIC: 8 µg/mL (≈ 15.5 µM)
Staphylococcus aureus [14]
  MIC: 8 µg/mL
Escherichia coli [15]
  Activity: 90%

## O=C(/C(=C/c1ccc(-c2ccc(Cl)cc2Cl)cc1)Oc1ccc2c(CN(CCO)CCO)cc(=O)oc2c1)c1nccs1
Staphylococcus aureus [11]
  MIC: 4 µg/mL

## COc1cc(CCN)c(-c2csc(-c3ccc(O)cc3)n2)cc1OC
Staphylococcus aureus [16]
  MIC: 700 µg/mL
Escherichia coli [17]
  MIC: < 230 µg/mL
Pseudomonas aeruginosa
  MIC: < 230 µg/mL

## N#C/C(C(=O)NCc1ccco1)=C1/SC(Cc2ccc(Cl)cc2)C(=O)N1c1ccccc1 (stereo unspecified)
Staphylococcus aureus [18]
  MIC: 4 µg/mL (≈ 8.62 µM)

## Cc1ccc(C2SCC(=O)N2c2nc3ccc(OC(F)(F)F)cc3s2)cc1 (stereo unspecified)
Staphylococcus aureus [3]
  MIC: 250 µg/mL (≈ 609 µM)
Staphylococcus aureus [4]
  MBC: 120 µg/mL (≈ 292 µM)

## Cc1cnc(/C=c2\[nH]c(=O)/c(=C\c3cccc(Br)c3)s2)s1
Staphylococcus aureus [7]
  MIC: 40 µg/mL (≈ 105 µM)

## CCn1cc(-c2csc(N)n2)c(=O)c2cc(F)c(N3CCN(Cc4ccc(Cl)c(Cl)c4)CC3)cc21
Staphylococcus aureus [19]
  MIC: 8 µg/mL

## CCOC1=NC(=N/N=C2\C(=O)Nc3ccc(Br)cc32)/S/C1=N/Nc1ccccc1
Escherichia coli [13]
  MIC: 4 µg/mL (≈ 8.49 µM)
Staphylococcus aureus [14]
  MIC: 8 µg/mL
Escherichia coli [15]
  Activity: 90%

## O=C1CSC(c2ccc(O)cc2)N1c1nc2ccc(OC(F)(F)F)cc2s1 (stereo unspecified)
Staphylococcus aureus [3]
  MIC: 250 µg/mL (≈ 606 µM)
Staphylococcus aureus [4]
  MBC: 120 µg/mL (≈ 291 µM)

## Cc1cc(/C=C2\Sc3ccccc3N2CCCN2CCC(C)CC2)c2ccccc2[n+]1C.[I-]
Staphylococcus aureus [20]
  MIC: 2 µg/mL

## O=C1CSC(c2c(Cl)cccc2Cl)N1c1nc2ccc(OC(F)(F)F)cc2s1 (stereo unspecified)
Staphylococcus aureus [3]
  MIC: 250 µg/mL (≈ 537 µM)
Staphylococcus aureus [4]
  MBC: 120 µg/mL (≈ 258 µM)

## O=C(O)c1cn(C2CC2)c2cc(N3CCN(C(=O)CN4C(=O)S/C(=C\c5ccccc5)C4=O)CC3)c(F)cc2c1=O
Staphylococcus aureus [21]
  MIC: 2.88 µg/mL (≈ 4.99 µM)
